{
  "source": "patent US4959370A",
  "about": "“Alkaloids of marine origin” (priority 1989, dated 1990)",
  "key": {"[1]": {"biological_target": "T1, purified cloned reverse transcriptase (RT) (HIV-1 M:B_HXB2R, UniProt P04585)", "T1 construct": "mature chain of Gag-Pol polyprotein", "experiment": "In vitro reverse transcriptase inhibitory activity", "assay_type": "biochemical", "settings": "400 μg/ml in 10 percent DMSO; 37° C., 0, 15, and 30 minutes; decrease in [3H] TTP incorporation vs controls", "protocol": "The activity of purified cloned reverse transcriptase (RT), in the presence or absence of test compound, was assayed by measuring the incorporation of tritiated thymidine triphosphate ([^3 H] TTP) into a DNA chain using polyadenosine as the template and oligodeoxythymidine as the primer (Biochem. Pharm. 1987, Vol. 36, No. 24 pp. 4361-4362). The final concentration of the compounds tested for anti-RT activity was 400 μg/ml in 10 percent DMSO. Controls contained 10 percent DMSO only. After incubation at 37° C. for 0, 15, and 30 minutes, an aliquot of the incubation mixture was spotted on cellulose paper, washed in TCA-pyrophosphate solution to remove [^3 H] TTP, dried and analyzed for the rate of incorporation of radioactivity. The compounds which inhibited more than 50 percent of the enzyme activity, as determined by a decrease in radioactivity compared with controls, were considered active."}, "[2]": {"system": "fourth larval stage of N. brasiliensis", "experiment": "In vitro anthelmintic activity against fourth larval stage (L4)", "assay_type": "cell-based, Nippostrongylus brasiliensis", "settings": "50 μg/ml, 37° C., seven days; for inhibition at 50 µg/mL: Nippostrongylus brasiliensis, 168 h", "protocol": "To obtain the fourth larval stage (L4) of Nippostrongylus brasiliensis, rats were inoculated with 6,500 to 6,750 N. brsiliensis third stage larvae subcutaneously. Seventy-two hours later the rats were sacrificed and the fourth stage larvae harvested. Compounds of Formula (I) were tested at 50 μg/mL against the fourth larval stage of N. brasiliensis at approximately 50 L4/well. This mixture was incubated at 37° C. for a total of seven days and then read for activity. Parameters used to determine drug activity were motility, viability, and the ability of fourth stage larvae to molt to the adult, i.e., cast formation. A compound was defined as active if (1) cast formation was reduced by 40 percent or more; or (2) viability and motility together were reduced 40 percent or more. | Compound B is a compound of Formula (I) where R is methyl. *Percent cast | reduction was determined by the following: | **Percent viability reduction was determined by the | following: | ***Percent motility reduction was a subjective evaluation"}, "[3]": {"settings": "cast formation (molt to adult), read-out: PERCENT REDUCTION COMPARED TO CONTROL: Casts"}, "[4]": {"settings": "subjective evaluation, read-out: PERCENT REDUCTION COMPARED TO CONTROL: Motility"}},
  "note": "Where two headings read alike, the source gives them in different places.",
  "data": [
    {"compound": "CNc1c2c(c3nc4ccccc4c4c3c1N=C4)NCCC2=O", "note": "[Compound A, plakinidine A]", "values": [
      {"measurement": "inhibition at 400 µg/mL", "setting": "[1]", "result": 83, "unit": "%"},
      {"measurement": "PERCENT REDUCTION COMPARED TO CONTROL: Viability", "setting": "[2]", "result": 100, "unit": "%"},
      {"measurement": "inhibition at 50 µg/mL", "setting": "[2]; [3]", "result": 100, "unit": "%"},
      {"measurement": "inhibition at 50 µg/mL", "setting": "[2]; [4]", "result": 100, "unit": "%"}
    ]},
    {"compound": "CN(C)c1c2c(c3nc4ccccc4c4c3c1N=C4)NCCC2=O", "note": "[Compound B, plakinidine B]", "values": [
      {"measurement": "PERCENT REDUCTION COMPARED TO CONTROL: Viability", "setting": "[2]", "result": 100, "unit": "%"},
      {"measurement": "inhibition at 50 µg/mL", "setting": "[2]; [3]", "result": 100, "unit": "%"},
      {"measurement": "inhibition at 50 µg/mL", "setting": "[2]; [4]", "result": 100, "unit": "%"}
    ]}
  ]
}
